Legend:
Assay type in all cases: physicochemical
[1] = Titration of Glutamic acid in water with NaOH
Description: About one milliequivalent of NaOH was neutralized per milliequivalent of Glutamic acid in water to raise the pH of its aqueous solution from 2.9 to about 5.

[2] = Titration of Sodium Glutamate solution
Description: Crystalline Sodium Glutamate gave solution of pH 6.7. It took, per milliequivalent of Sodium Glutamate used, little less than 1 milliequivalent of HCl to bring the pH from 6.7 down to 3 and about 1 milliequivalent of […] the pH from 6.7 to 10.8. Here, the crystalline Sodium Glutamate solution of pH 6.7 represents an intermediate form of alkaline protein.

[3] = Determination of Acid Neutralization Capacity (ANC) by titration against 1N HCl
Experimental: About 20 ml of 1N NaOH was added to about or less than 1 gram dry weight of the active ingredient (Protein isolate or protein rich extract) with about 10 ml water content. In cold treatment, the mixture was kept at room temperature overnight until the sedimented coagulum was seen to have been dispersed evenly in a solution. In a hot treatment, the mixture was kept in an oven at 80 degrees Celsius, volume restored to 30 ml by addition of distilled water and titrated after various stages of degradation after the period of treatment. Alkali remaining in excess was either neutralized by titrating against 1N HCl until pH dropped to 10.8 or by dialyzing the mixture using gelatin membrane against 700 milliliter portions of distilled water three to four times until the dialysate contained little alkalinity.
Acid Neutralization Capacity was noted as milliequivalents of HCl neutralized to maintain the pH at 3 for two hours and expressed as per gram dry weight of the active antacid ingredient or per dose of the antacid composition containing the active ingredient. Total volume of the reactants were adjusted to 30 ml or 40 ml and titrated against 1N HCl and pH was noted after each small dropwise addition. The pH was measured by a pH meter.
In titration of distilled water, it was observed that pH of the water raised rapidly to 10.8 with addition of a single drop. Similarly, while titrating 1N NaOH against 1N HCl, fall in pH from 12.2 to 10.8 was gradual. However, thereafter, just one drop was sufficient to lower the pH to neutral. Thus, it was clear that acid neutralized by the products within the pH range of 3 to 10.8 was due to Acid Neutralization Capacity when solutions of antacid active ingredients covered in the examples were titrated for determination of their ANC.
When alkali treated mixtures were titrated, acid required to bring down the pH to 10.8 was considered as acid required to neutralize the unreacted NaOH. Acid required to neutralize pH from 10.8 up to pH 3 was taken for calculation of ANC.
Whenever desired, the alkali treated mixture was dialysed through gelatin membrane against about 700 milliliters of distilled water each time three to four times. Significant quantity of alkalinity appeared in first two dialyses in first two hours. Third dialysis, usually done for several hours overnight usually contained very little of alkalinity in the range of pH 10.8 and above.

For N[C@@H](CCC(=O)O)C(=O)O [Glutamic acid], the NaOH consumed ([1]; from pH 5 to 10.9) was “about 1.2 milliequivalents per milliequi”, the “pH of aqueous solution” value ([1]; in water, before titration) was 2.9 and the NaOH neutralized ([1]; to raise pH from 2.9 to about 5) was “About one”.

With N[C@@H](CCC(=O)[O-])C(=O)[O-].[Na+].[Na+] [Sodium Glutamate] the pH of solution ([2]; crystalline Sodium Glutamate in solution) was 6.7, the “HCl to bring the pH down” value ([2]; pH from 6.7 down to 3) was “less than 1 milliequivalent per milliequiv” and the “HCl to raise the pH” value ([2]; pH from 6.7 to 10.8) was “about 1 milliequivalent per milliequiv”.

In the case of Casein, the ANC ([3]; after cold alkali treatment (1N NaOH, room temperature overnight), pH 10.8 to 3) is reported as 1.5 milliequivalents of HCl per gr, the ANC ([3]; after hot alkali treatment (80 degrees Celsius) of 2 days) is reported as 4.88 milliequivalents of HCl per gr and the ANC ([3]; after hot alkali treatment (80 degrees Celsius) of 6 days) is reported as 8 milliequivalents of HCl per gr. The ANC ([3]; untreated protein isolate, HCl neutralized to maintain pH 3 for two hours) was 0.12 per gram.
